Laboratory results published in US20260265246A1 (ICAHN SCHOOL OF MEDICINE AT MOUNT SINAI, priority 2021, published 2026).
Where two headings read alike, the source gives them in different places.

What was measured:
5HT2A receptor [1] = target: T1, 5HT2A receptor (Homo sapiens, UniProt P28223); assay: cell-based; set-up: expressed in transfected cells; host or cells: HEK293T cells, transient co-transfection; settings: for Emax: HEK-293T
5HT2A receptor [2] = target: T1, 5HT2A receptor; assay: biochemical; format: binding; set-up: expressed in transfected cells; crude membranes; settings: 5HT2A Ki (nM)
[3] = 5HT2A Gq EC50 (nM), BRET2 Gαq dissociation, HEK293T cells
[4] = BRET2 Gαq dissociation, HEK293T cells, normalized to 5-HT, read-out: 5HT2A Gq Emax (%)
[5] = secondary radioligand binding, Ki from IC50 by Cheng-Prusoff
[6] = 5HTA Gq EC50 (nM), BRET2 Gαq dissociation, HEK293T
[7] = BRET2 Gαq dissociation, HEK293T, normalized to 5-HT, read-out: 5HTA Gq Emax (%)
[8] = secondary binding assay, Cheng-Prusoff
[9] = read-out: 5HTA Gq Emax (%), BRET2 Gαq dissociation, HEK293T, normalized to 5-HT
[10] = BRET2 Gαq dissociation, HEK293T, read-out: 5HTA Gq EC50

T1 sequence (P28223 whole entry): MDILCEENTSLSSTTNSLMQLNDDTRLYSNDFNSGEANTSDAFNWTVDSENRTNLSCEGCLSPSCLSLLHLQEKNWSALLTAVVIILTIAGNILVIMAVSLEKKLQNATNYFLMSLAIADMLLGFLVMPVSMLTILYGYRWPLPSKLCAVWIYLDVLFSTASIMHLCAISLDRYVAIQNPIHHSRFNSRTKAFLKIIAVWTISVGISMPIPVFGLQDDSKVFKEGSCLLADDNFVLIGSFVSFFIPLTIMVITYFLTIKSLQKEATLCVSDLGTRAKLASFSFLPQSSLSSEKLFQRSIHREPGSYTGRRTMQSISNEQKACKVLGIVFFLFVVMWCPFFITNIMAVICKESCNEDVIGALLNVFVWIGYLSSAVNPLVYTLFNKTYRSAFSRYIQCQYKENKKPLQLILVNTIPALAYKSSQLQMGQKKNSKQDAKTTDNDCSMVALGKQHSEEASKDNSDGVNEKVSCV

| Compound | EC50 (5HT2A receptor [1]; [3]) [nM] | Emax (5HT2A receptor [1]; [4]) [%] | Ki (5HT2A receptor [2]; [5]) [nM] | EC50 (5HT2A receptor [1]; [6]) [nM] | Emax (5HT2A receptor [1]; [7]) [%] | Ki (5HT2A receptor [2]; [8]) [nM] | Emax (5HT2A receptor [1]; [9]) [%] | EC50 (5HT2A receptor [1]; [10]) [nM] |
| --- | --- | --- | --- | --- | --- | --- | --- | --- |
| CCc1cccc2c(C3=CCCNC3)c(Cl)[nH]c12 [Example 66, 2-chloro-7-ethyl-3-(1,2,5,6-tetrahydropyridin-3-yl)-1H-indole] | 213 | 79 | 115 | – | – | – | – | – |
| COc1cccc2c(C3=CCCN(Cc4ccccc4)C3)c[nH]c12 [Example 71, 3-(1-benzyl-1,2,5,6-tetrahydropyridin-3-yl)-7-methoxy-1H-indole] | 530 | 65.2 | 448 | – | – | – | – | – |
| CN1CCC=C(c2n[nH]c3cc(Cl)ccc23)C1 [Example 94, 6-chloro-3-(1-methyl-1,2,5,6-tetrahydropyridin-3-yl)-1H-indazole] | 309 | 72.1 | 1300 | – | – | – | – | – |
| CN1CCC=C(c2n[nH]c3ccc(C#N)cc23)C1 [Example 103, 3-(1-methyl-1,2,5,6-tetrahydropyridin-3-yl)-1H-indazole-5-carbonitrile] | 612 | 64.9 | 1390 | – | – | – | – | – |
| CCCN1CCC=C(c2n[nH]c3c(Cl)cccc23)C1 [Example 123, 7-chloro-3-(1-propyl-1,2,5,6-tetrahydropyridin-3-yl)-1H-indazole] | 142 | 66.9 | 140 | – | – | – | – | – |
| CN1CCC=C(c2c[nH]c3cnccc23)C1 [Example 135, 3-(1-methyl-1,2,5,6-tetrahydropyridin-3-yl)-1H-pyrrolo[2,3-c]pyridine] | – | – | – | 1610 | 77.8 | 3540 | – | – |
| CN1CCC=C(c2c[nH]c3ccncc23)C1 [Example 136, 3-(1-methyl-1,2,5,6-tetrahydropyridin-3-yl)-1H-pyrrolo[3,2-c]pyridine] | – | – | – | 529 | 92.5 | 1810 | – | – |
| Cc1ccc2[nH]cc(C3=CCCNC3)c2n1 [Example 139, 5-methyl-3-(1,2,5,6-tetrahydropyridin-3-yl)-1H-pyrrolo[3,2-b]pyridine] | – | – | – | 785 | 112 | 4180 | – | – |
| Cc1ccc2[nH]cc(C3=CCCN(C)C3)c2n1 [Example 140, 5-methyl-3-(1-methyl-1,2,5,6-tetrahydropyridin-3-yl)-1H-pyrrolo[3,2-b]pyridine] | – | – | – | 247 | 62.6 | 1130 | – | – |
| C1=C(c2c[nH]c3ccncc23)CNCC1 [Example 141, 3-(1,2,5,6-tetrahydropyridin-3-yl)-1H-pyrrolo[3,2-c]pyridine] | – | – | – | 631 | 91.3 | 739 | – | – |
| CCCN1CCC=C(c2c[nH]c3ccncc23)C1 [Example 144, 3-(1-propyl-1,2,5,6-tetrahydropyridin-3-yl)-1H-pyrrolo[3,2-c]pyridine] | – | – | – | 1180 | 67.2 | 8250 | – | – |
| Clc1cccc2c(C3=CCCN(CC4CC4)C3)n[nH]c12 [Example 151, 7-chloro-3-(1-(cyclopropylmethyl)-1,2,5,6-tetrahydropyridin-3-yl)-1H-indazole] | – | – | – | 61.1 | – | 198 | 38.8 | – |
| CC(F)(F)CN1CCC=C(c2n[nH]c3c(Cl)cccc23)C1 [Example 163, 7-chloro-3-(1-(2,2-difluoropropyl)-1,2,5,6-tetrahydropyridin-3-yl)-1H-indazole] | – | – | – | 604 | 82.4 | > 10000 | – | – |
| CCC(C)N1CCC=C(c2n[nH]c3c(Cl)cccc23)C1 (stereo not drawn) [Example 167, 3-(1-(sec-butyl)-1,2,5,6-tetrahydropyridin-3-yl)-7-chloro-1H-indazole] | – | – | – | 173 | 25.7 | 525 | – | – |
| CCCN(CCC)C1CCC=C(c2n[nH]c3c(Cl)cccc23)C1 (stereo not drawn) [Example 172, 3-(7-chloro-1H-indazol-3-yl)-N,N-dipropylcyclohex-3-en-1-amine] | – | – | – | 4020 | 66.4 | > 10000 | – | – |
| CCCN1CCC=C(c2n[nH]c3c(Cl)cc(F)cc23)C1 [Example 173, 7-chloro-5-fluoro-3-(1-propyl-1,2,5,6-tetrahydropyridin-3-yl)-1H-indazole] | – | – | – | – | 57.3 | 839 | – | 84.6 |
| Clc1cccc2c(C34CNCC3C4)n[nH]c12 (stereo not drawn) [Example 180, 3-(3-azabicyclo[3.1.0]hexan-1-yl)-7-chloro-1H-indazole] | – | – | – | 174 | – | 227 | 109 | – |
| Clc1cccc2c(C34CNCCC3C4)n[nH]c12 (stereo not drawn) [Example 181, 3-(3-azabicyclo[4.1.0]heptan-1-yl)-7-chloro-1H-indazole] | – | – | – | 120 | – | 842 | 61.3 | – |
| CCCN1CCC2CC2(c2n[nH]c3c(Cl)cccc23)C1 (stereo not drawn) [Example 182, 7-chloro-3-(3-propyl-3-azabicyclo[4.1.0]heptan-1-yl)-1H-indazole] | – | – | – | 786 | 78.9 | 2470 | – | – |
| CN1CC2CC2(c2n[nH]c3c(Cl)cccc23)C1 (stereo not drawn) [Example 183, 7-chloro-3-(3-methyl-3-azabicyclo[3.1.0]hexan-1-yl)-1H-indazole] | – | – | – | 251 | – | 595 | 69.7 | – |

| Compound | EC50 (5HT2A receptor [1]; [3]) [nM] | Emax (5HT2A receptor [1]; [4]) [%] | Ki (5HT2A receptor [2]; [5]) [nM] | EC50 (5HT2A receptor [1]; [6]) [nM] | Emax (5HT2A receptor [1]; [7]) [%] | Ki (5HT2A receptor [2]; [8]) [nM] | Emax (5HT2A receptor [1]; [9]) [%] | EC50 (5HT2A receptor [1]; [10]) [nM] |
| --- | --- | --- | --- | --- | --- | --- | --- | --- |
| FC1(F)C2CCNCC21c1n[nH]c2c(Cl)cccc12 (stereo not drawn) [Example 188, 7-chloro-3-(7,7-difluoro-3-azabicyclo[4.1.0]heptan-1-yl)-1H-indazole] | – | – | – | 1460 | – | 2100 | 83.7 | – |
| Fc1cc(Cl)c2[nH]nc(C34CNCCC3C4(F)F)c2c1 (stereo not drawn) [Example 191, 7-chloro-3-(7,7-difluoro-3-azabicyclo[4.1.0]heptan-1-yl)-5-fluoro-1H-indazole] | – | – | – | 1620 | 83 | 3040 | – | – |
| Fc1cccc2c(C34CNCCC3C4)n[nH]c12 (stereo not drawn) [Example 194, 3-(3-azabicyclo[4.1.0]heptan-1-yl)-7-fluoro-1H-indazole] | – | – | – | 795 | 64.4 | 2480 | – | – |
| Fc1cc(Cl)c2[nH]nc(C34CNCCC3C4)c2c1 (stereo not drawn) [Example 196, 3-(3-azabicyclo[4.1.0]heptan-1-yl)-7-chloro-5-fluoro-1H-indazole] | – | – | – | 220 | 67 | 910 | – | – |
| CN1CCC2CC2(c2n[nH]c3c(Cl)cc(F)cc23)C1 (stereo not drawn) [Example 198, 7-chloro-5-fluoro-3-(3-methyl-3-azabicyclo[4.1.0]heptan-1-yl)-1H-indazole] | – | – | – | 1160 | 45.1 | 1450 | – | – |
| Fc1cc(Cl)c2[nH]nc(C34CNCC3C4(F)F)c2c1 (stereo not drawn) [Example 203, 7-chloro-3-(6,6-difluoro-3-azabicyclo[3.1.0]hexan-1-yl)-5-fluoro-1H-indazole] | – | – | – | 700 | 39.5 | 1080 | – | – |
| CN1CCCC=C(c2n[nH]c3c(Cl)cccc23)C1 [Example 211, 7-chloro-3-(1-methyl-2,5,6,7-tetrahydro-1H-azepin-3-yl)-1H-indazole] | – | – | – | 732 | 59.9 | 1180 | – | – |
| Clc1cccc2c(C3=CCCCNC3)c[nH]c12 [Example 212, 7-chloro-3-(2,5,6,7-tetrahydro-1H-azepin-3-yl)-1H-indole] | – | – | – | 655 | – | 6240 | 72.5 | – |
| Clc1cccc2c(C3=CC4CCC3NC4)n[nH]c12 (stereo not drawn) [Example 223, 6-(7-chloro-1H-indazol-3-yl)-2-azabicyclo[2.2.2]oct-5-ene] | – | – | – | 717 | – | 1920 | 89.7 | – |
| Clc1cccc2c(C3CC4CCC(C3)N4)n[nH]c12 (stereo not drawn) [Example 225, 3-(8-azabicyclo[3.2.1]octan-3-yl)-7-chloro-1H-indazole] | – | – | – | 500 | 105 | 2110 | – | – |
| Cc1cccc2c(C34CC3CN(C)C4)n[nH]c12 (stereo not drawn) [Example 227, 7-methyl-3-(3-methyl-3-azabicyclo[3.1.0]hexan-1-yl)-1H-indazole] | – | – | – | 684 | 32.5 | 1450 | – | – |
| Clc1cccc2c(C34CCNCC3C4)n[nH]c12 (stereo not drawn) [Example 228, 3-(3-azabicyclo[4.1.0]heptan-6-yl)-7-chloro-1H-indazole] | – | – | – | 1070 | 76.4 | 5240 | – | – |
| Clc1cccc2c(C3=CCNCC3)n[nH]c12 [Example 241, 7-chloro-3-(1,2,3,6-tetrahydropyridin-4-yl)-1H-indazole] | – | – | – | – | 63.4 | 376 | – | 65 |
| CCCN1CC=C(c2c[nH]c3c(Cl)cccc23)CC1 [Example 243, 7-chloro-3-(1-propyl-1,2,3,6-tetrahydropyridin-4-yl)-1H-indole] | – | – | – | 104 | – | 27.2 | 41.9 | – |
| CCCc1cccc2c(C3=CCCN(C)C3)c[nH]c12 [Example 244, 3-(1-methyl-1,2,5,6-tetrahydropyridin-3-yl)-7-propyl-1H-indole] | – | – | – | 397 | – | 1550 | 77.2 | – |
| CN1CCOC(c2c[nH]c3c(Cl)cccc23)C1 (stereo not drawn) [Example 246, 2-(7-chloro-1H-indol-3-yl)-4-methylmorpholine] | – | – | – | 620 | 69.6 | 2140 | – | – |
| Fc1cc(Cl)c2[nH]cc(C3CNCCO3)c2c1 (stereo not drawn) [Example 249, 2-(7-chloro-5-fluoro-1H-indol-3-yl)morpholine] | – | – | – | 118 | 72.2 | 1020 | – | – |
| Clc1cccc2c(C3=CN4CCC3CC4)c[nH]c12 [Example 250, 3-(7-chloro-1H-indol-3-yl)-1-azabicyclo[2.2.2]oct-2-ene] | – | – | – | 1290 | 73.1 | 1630 | – | – |
| Cc1cccc2c(C3CNC3)c[nH]c12 [Example 258, 3-(azetidin-3-yl)-7-methyl-1H-indole] | – | – | – | 444 | – | 674 | 82.1 | – |
